Assay results from patent publication US6656695B2, “Biomap characterization of biologically active agents” (Bioseek, Inc., priority 2000, dated 2003).

Legend:
HUVEC cells [1] = assay: optimized inflammatory assay combination: HUVEC treated with TNF-α+IFN-γ+IL-1, readout parameters by cell-based ELISA (biomap); parameters: species or system human; conditions: for activity (alteration of the biomap) in the optimized assay combination: HUVEC, TNF-α+IFN-γ+IL-1, 24 hours, 10 μM NHGA, 200 μM PDTC, 9 μM PD098059, PPM-18 2 μM, AG126 25 μM, p55-Fc 50 ng/ml; for cellular toxicity: either drug alone at higher concentrations (2-fold) than PPM-18 2 μM / AG126 25 μM
Method: Primary human umbilical vein endothelial cells (HUVEC) are used. Other cells that may replace HUVEC in the screen include primary microvascular endothelial cells, aortic or arteriolar endothelial cells or endothelial cell lines such as EAhy926 or E6-[…]-5-2G cells or human telomerase reverse transcriptase-expressing endothelial cells (Simmons, J. Immunol., 148:267, 1992; Rhim, Carcinogenesis 19:673, 1998; Yang, J. Biol. Chem. 274:26141, 1999). 2×10^4 cells/ml are cultured to confluence in EGM-2 (Clonetics). Other media that may replace EGM-2 include EGM (Clonetics) and Ham's F12K medium supplemented with 0.1 mg/ml heparin and 0.03-0.05 mg/ml endothelial cell growth supplement (ECGS) and 10% FBS, or medium M199 (Life Technologies, Inc.) containing 20% fetal bovine serum and 2 ng/ml basic fibroblast growth factor (Jaffe, J. Clin. Invest. 52:2745, 1973; Hoshi, PNAS 81:6413, 1984). The disease environment present in chronic inflammatory diseases, such as Crohn's disease, differs from the normal condition by increased presence of multiple biologically active agents including IL-1, TNF-α, and IFN-γ (Woywodt, 1994; Kakazu, 1999). Other biologically active agents that may be increased in chronic inflammatory disease environments include IL-4, IL-6, IL-8, IL-12, IL-13, IL-18, TGFbeta, and histamine, as well as activated leukocytes and their products (Daig, 1996, Gut 38:216; Woywodt, 1994, Eur. cytokine Netw. 5:387; Kakazu, 1999 Am J. Gastroenterol. 94:2149; Pizarro, 1999, J. Immunol. 162:6829; Monteleone, 1999, J. Immunol. 163:143; […] Enteral Nutr 23:S20; Beck, 1999, […]. Bowel Dis. 5:44). Optimized assay combinations will contain at least two, and preferably three, four or more of these biologically active agents. […] After 24 hours, cultures are washed and evaluated for the presence of the parameters ICAM-1 (1), VCAM-1 (2), E-selectin (3), IL-8 (4), CD31 (5), HLA-DR (6) and MIG (7) by cell-based ELISA as described (Melrose, J. Immunol. 161:2457, 1998). For this, plates are blocked with 1% Blotto for 1 hr, and treated with primary antibodies (obtained from Pharmingen and Becton Dickinson) at 1 ng/ml for 2 hr. After washing, secondary peroxidase-conjugated anti-mouse IgG antibody (Promega) at 1:2500 is applied for 45 min. After washing, TMB substrate (Kierkegaard & Perry) is added and color developed. Development is stopped by addition of H2SO4 and the absorbance at 450 nm (subtracting the background absorbance at 600 nm) is read with a Molecular Dynamics plate reader. The relative expression levels of each parameter are indicated by the OD at 450 nm shown along the y-axis. The mean +/- SD from triplicate samples is shown. […] Confluent cultures of HUVEC cells are treated with TNF-α (5 ng/ml)+IFN-γ (100 ng/ml)+IL-1 (1 ng/ml) in the presence or absence of neutralizing anti-TNF-α or control antibody (Goat anti-IgG). […] In FIG. 3A, the relative expression of each parameter is shown along the y-axis as average value of the OD measured at 450 nm of triplicate samples. The mean +/- SD from triplicate samples are shown. * indicates p<0.05 comparing results obtained with anti-TNF-α to the control. […] A color-coded representation of the biomaps developed from the data is shown. […] J. Physiol. 273(2 Pt 2):[…], 1997), the corticosteroids dexamethasone and prednisolone, echinacea, AA861 (Lee, J. Immunol. 158, 3401, 1997), apigenin ([…], Am. J. Pathol. 147:278, 1995), nordihydroguaiaretic acid (NHGA) (Brennen, Biochem. […] J. Immunol. 27:2172, 1997), pyrrolidine dithiocarbamate (PDTC) (Boyle, Circulation, 98, (19 Suppl):11282, 1998), PPM-18 (Yu, Biochem. […] Biol. Chem. 273:18165, 1998), AG126 (Novogrodsky, Science 264, 1319, 1994), and neutralizing anti-TNF-α antibody. Color-coded representations of the resulting biomaps are shown. Confluent cultures of HUVEC cells are treated with TNF-α (5 ng/ml)+IFN-γ (100 ng/ml)+IL-1 (1 ng/ml) in the presence or absence of agents or buffers at the concentrations indicated in Table 1. […]

HUVEC cells [2] = assay: multiplex (secondary) assay combinations: HUVEC with single pathway activators or media, biomaps by cell-based ELISA; parameters: species or system human; conditions: TNF-α, IFN-γ, IL-1 alone or combined; 20 μM AA861, 10 μM NHGA; FIG. 5
Method: Confluent cultures of HUVEC cells are treated with TNF-α (5 ng/ml), IFN-γ (100 ng/ml), IL-1 (20 ng/ml), the combination of TNF-α+IFN-γ+IL-1, or media (no cytokine) in the presence or absence of neutralizing anti-TNF-α, 20 μM AA861 or 10 μM NHGA. After 24 hours, cultures are washed and evaluated for the cell surface expression of ICAM-1 (1), VCAM-1 (2), E-selectin (3), IL-8 (4), and MIG (5) by cell-based ELISA performed as described in FIG. 1. A color-coded representation of the resulting biomaps derived from the data is shown in FIG. 5, coded as described in FIG. 2B.
Confirmation is performed by evaluating the test agent in assay combinations that include both physiologic and alternative pathway activators. […] After 24 hours, cultures are washed and evaluated for the cell surface expression of ICAM-1 (1), VCAM-1 (2), E-selectin (3), CD31 (4), and MIG (5) by cell-based ELISA performed as described in FIG. 1. […]
In FIG. 7B, confluent cultures of HUVEC cells are treated with TNF-α (5 ng/ml), IFN-γ (100 ng/ml), IL-1 (20 ng/ml), the combination of TNF-α+IFN-γ+IL-1, or media in the presence or absence of p55-Fc. After 24 hours, cultures are washed and evaluated for the cell surface expression of ICAM-1 (1), VCAM-1 (2), E-selectin (3), IL-8 (4), and MIG (5) by cell-based ELISA performed as described in FIG. 1. […]

Compound | activity (alteration of the biomap) in the optimized assay combination (HUVEC cells [1]) | cellular toxicity (HUVEC cells [1]) | cytokine signaling pathways targeted (HUVEC cells [2])
N#CC(C#N)=Cc1ccc([N+](=O)[O-])c(O)c1 [AG126] | active compounds | cellular toxicity | –
CC(Cc1ccc(O)c(O)c1)C(C)Cc1ccc(O)c(O)c1 (centres unmarked) [NHGA, nordihydroguaiaretic acid] | altered biomaps | – | target multiple cytokine signaling pathways
COc1cccc(-c2cc(=O)c3ccccc3o2)c1N [PD098059] | altered biomaps | – | –
S=C(S)N1CCCC1 [PDTC, pyrrolidine dithiocarbamate] | altered biomaps | – | –
O=C(NC1=CC(=O)c2ccccc2C1=O)c1ccccc1 [PPM-18] | active compounds | cellular toxicity | –
